Laboratory results: PMC10057994, “Click Triazole as a Linker for Pretargeting Strategies: Synthesis, Docking Investigations, Fluorescence Diagnosis, and Antibacterial Action Studies” (Molecules, 2023)

Experiments:
[1] = Fluorescence excitation and emission spectra; assay type: physicochemical
Procedure: (§1) The ^1H NMR and ^13C NMR spectra were recorded at 25 °C in a Nuclear Magnetic Resonance Spectrophotometer (DRX-400, Bruker, Bremerhaven, Germany) at 400 MHz for ^1H NMR in DMSO-d6 and 100 MHz for ^13C NMR in CDCl3. Thin layer chromatography (TLC) was carried out on silica gel (GF254, Qingdao Haiyang Chemical Co., Ltd., Qingdao, China), and the spots were visualized with UV light at 254 nm. Fluorescence spectra were recorded on a fluorescence spectrophotometer (F-2710, Hitachi, Tokyo, Japan). UV-Vis spectrophotometer (UH5300, Hitachi, Tokyo, Japan) was used for the absorption measurements and the spectra were typically measured in the range of 190–1100 nm.
The sample of probes (T1–T4) was diluted to 1 × 10^−5 mg/mL for fluorescence, excitation, and emission spectra measurement by a fluorescence spectrophotometer. All experiments were performed in triplicate.

RAW264.7 cell = assay: MTT cell proliferation (cytotoxicity) assay; assay type: cell-based; settings: for IC50: MTT, 36 h treatment
Procedure: The “click” reaction conditions in click chemistry require copper sulfate and sodium ascorbate as catalysts, and the copper sulfate concentration is generally too high, which causes certain damage to the body. RAW264.7 cells were used as test cells to explore the safe concentration of copper sulfate, compounds A1–A3, and probes T1–T4. The macrophage suspension of RAW264.7 cells in the logarithmic growth stage was adjusted to 5 × 10^4 cells/mL and seeded in 96-well plates with 100 µL in each well. The cells were incubated at 37 °C and 5% CO2 for 24 h and then treated with different concentrations of copper sulfate solution (each concentration was repeated three times). After being treated with copper sulfate for 36 h, 10 µL MTT (5 mg/mL) was added to each well, and the cells were incubated at 37 °C and 5% CO2 for 4 h. Then, the MTT in the well was discarded, and 100 µL DMSO was added to each well and incubated at 37 °C for 0.5 h until the crystals were completely dissolved. The microplate reader read the OD490 nm of each well. The cytotoxicity assays of compounds A1–A3 and probes T1–T4 were the same as above. The cell proliferation inhibition rate (IC50) was calculated using SPSS 16.0 software.

[2] = test system: Agrobacterium tumefaciens; assay: Fluorescence detection of Agrobacterium tumefaciens by diagnostic molecules (click in situ, fluorescence microscope); assay type: cell-based; settings: inhibitor 8 h (A1 30, A2 50, A3 50 µmol/L), then same amount of probe, copper sulfate and sodium ascorbate, click 1 h; probe-only controls
Procedure: An amount of 3 mL of the standby Agrobacterium solution at a concentration of 5 × 10^3 CFU/mL was added to the shaker tube. Then, 200 µL of A1 at a concentration of 30 µmol/L, A2 at a concentration of 50 µmol/L, and A3 at a concentration of 50 µmol/L were added at 28 °C. After incubation at 200 RPM/min for 8 h, the upper layer of the medium was poured off after centrifugation and washed three times with PBS, and the bacterial solution was resuspended by adding 1 mL of medium. Then, the same amount of probe was added, and 15 µL copper sulfate and sodium ascorbate were added at a concentration of 10 µmol/L. The control group was treated with only the corresponding probe, and the concentration of each probe was the same as that of the corresponding inhibitor. After adding probes to each group, the “click” reaction was complete for 1 h. After centrifugation, the upper layer of the medium was poured off and washed three times with PBS. Then, 1 mL of the medium was added to resuspend the bacterial solution, and 10 µL was added to the slide for fluorescence microscope detection and observation of the fluorescence of Agrobacterium in each group.

[3] = UV-Vis absorption spectroscopy; assay type: physicochemical; settings: in methanol
Procedure: as §1
The sample of the compounds (A1–A3) was diluted to 1 × 10^−5 mg/mL. After thorough mixing, the target molecules were detected using a UV spectrophotometer at UV absorption wavelengths. The volume of the sample needed to be greater than 2/3 of the cuvette volume. All experiments were performed in triplicate.

[4] = test system: Agrobacterium tumefaciens; assay: Antibacterial activity, LB plate microdilution test; assay type: cell-based; settings: for antibacterial activity: cultured for 8 h
Procedure: The compounds A1–A3 were evaluated through the plate microdilution test according to the guidelines of the Clinical and Laboratory Standards Institute (CLSI). A colony of Agrobacterium tumefaciens grown on lysogeny broth (LB) agar plates was inoculated in lysogeny broth (LB) and incubated in an aerobic environment at 28 °C overnight (ON). The bacterial suspension was diluted to 5 × 10^7 CFU/mL, and 200 µL was added to each well, obtaining a final density of […]. Meanwhile, A1–A3 were serially diluted in 1X PBS at concentrations of 30, 50, and 100 µmol/L. Cefuroxime was used as an antibiotic control and DMSO as a solvent control. Subsequently, the plates were incubated at 28 °C in aerobiosis, and the growth rate was evaluated after 4, 6, 8, and 10 h using an ultraviolet (UV) detector.

Work on [N-]=[N+]=NCCOc1ccc(/C=N/c2ccccc2OCc2ccccc2[N+](=O)[O-])c(O)c1 [T1, (E)-2-((2-(2-nitrobenzyloxy)phenylimino)methyl)-5-(2-azidoethoxy)phenol] yielded a best emission wavelength [1] of 310 nm, a best excitation wavelength [1] of 273 nm and an IC50 (RAW264.7 cell; Mus musculus) of over 100 µM.
For C#CCOc1ccc(-c2nc3ccccc3s2)c(O)c1 [T3, 2-(benzo[d]thiazol-2-yl)-5-(prop-2-ynyloxy)phenol], the best emission wavelength [1] was 377 nm, the best excitation wavelength [1] was 327 nm and the IC50 (RAW264.7 cell; Mus musculus) was over 100 µM. For the same compound, the “fluorescence of Agrobacterium tumefaciens” value [2] was “did not emit fluorescence” and the melting point was 179 to 180 °C.
With C#CCOc1ccc(O)c(C(=O)N/N=C/c2ccc(-c3ccccc3[N+](=O)[O-])o2)c1 [A1, (E)-2-hydroxy-N’-((5-(2-nitrophenyl)furan-2-yl)methylene)-5-(prop-2-ynyloxy)benzohydrazide] the IC50 (RAW264.7 cell; Mus musculus) was over 98 µM, the “absorption maxima (λmax)” value [3] was 352 nm and the antibacterial activity ([4]; 30 µmol/L) was 35%.
In the case of C#CCNc1cccc(C(=O)N/N=C/c2ccc(-c3ccccc3[N+](=O)[O-])o2)c1 [A2, (E)-N’-((5-(2-nitrophenyl)furan-2-yl)methylene)-3-(prop-2-ynylamino)benzohydrazide], the IC50 (RAW264.7 cell; Mus musculus) is reported as over 96 µM, the “absorption maxima (λmax)” value [3] is reported as 332 nm and the antibacterial activity ([4]; 50 µmol/L) is reported as 45%. The “antibacterial activity (in words)” value ([4]; Agrobacterium tumefaciens, 30-100 µmol/L, 4-10 h) was “better antibacterial activity than A1 and A3”.
For O=S(=O)([O-])[O-].[Cu+2] [copper sulfate], the cell survival rate (RAW264.7 cell; copper sulfate concentration 12 µmol/L) was 80%.
In the case of “(E)-5-(3-azidopropoxy)-2-((2-hydroxyphenylimino)methyl)phenol [T4]”, the best emission wavelength [1] is reported as 313 nm, the best excitation wavelength [1] is reported as 272 nm and the IC50 (RAW264.7 cell) is reported as over 87 µM. The “fluorescence of Agrobacterium tumefaciens” value [2] was “did not emit fluorescence”.
C#CCOc1ccc(/C=N/c2ccccc2O)c(O)c1 [T2, (E)-2-((2-hydroxyphenylimino)methyl)-5-(prop-2-ynyloxy)phenol] showed a best emission wavelength [1] of 315 nm, a best excitation wavelength [1] of 273 nm and an IC50 (RAW264.7 cell; Mus musculus) of over 92 µM.
For [N-]=[N+]=NCCOc1ccc(O)c(C(=O)N/N=C/c2ccc(-c3ccccc3[N+](=O)[O-])o2)c1 [A3, (E)-5-(2-azidoethoxy)-2-hydroxy-N’-((5-(2-nitrophenyl)furan-2-yl)methylene)benzohydrazide], the IC50 (RAW264.7 cell; Mus musculus) was over 100 µM, the “absorption maxima (λmax)” value [3] was 346 nm and the antibacterial activity ([4]; 50 µmol/L) was 35%.
